Read-outs that look alike come from different tables or passages of the source.
Experiments:
[1] = tested on: MDA-MB 435 melanoma cell line; assay: MTT cytotoxicity assay, MDA-MB 435; type: cell-based; conditions: Homo sapiens, 72 h, read-out: GI50, MDA-MD435
Description: (§1) Human melanoma cell line MDA-MB 435, pancreatic cancer cell line Panc-1, and colon cancer cell line HT 29 were purchased from the American Type Cell Culture (Manassas, VA, USA). HCT 116 p53^+/+ and HCT 116 p53^−/^− were kindly provided by Dr. Bert Vogelstein, Johns Hopkins Medical Institutions (Baltimore, MD, USA). HCT 116 p53^+/+, HCT116 p53^−/^−, and HT 29 cells were maintained as monolayer cultures in RPMI 1640 supplemented with 10% fetal bovine serum (FBS; Gemini-Bioproducts, Woodland, CA, USA) and 2 mmol/L L-glutamine at 37 °C in a humidified atmosphere of 5% CO2. Similarly, MDA-MB 435 and Panc-1 cells were maintained in Dulbecco’s modified Eagle’s medium (DMEM) supplemented with 10% fetal bovine serum as described above. […]
(§2) Cytotoxicity was assessed by 3-(4,5-dimethylthiazol-2-yl)-2,5-diphenyltetrazolium bromide (MTT) assay as previously described. […]
(§3) After 72 h exposure to the test compounds, MTT solution (5 mg/mL; 20 μL) was added to each well and cells were incubated for 4 h at 37 °C. […] The absorbance intensity was measured at 570 nm against appropriate blank controls using a microplate reader (Molecular Devices, Sunnyvale, CA, USA). […]

[2] = tested on: HT 29 colon cancer cell line; assay: MTT cytotoxicity assay, HT 29; type: cell-based; conditions: Homo sapiens, 72 h
Description: as §1, §2, §3

HIV-1 IN = target: T1, HIV-1 IN (Human immunodeficiency virus type 1 group M subtype B, UniProt P12497); assay: In vitro IN inhibition assay (3’-processing and strand transfer); type: biochemical; conditions: Mn2+ cofactor (7.5 mM MnCl2)
T1 construct: pre-incubated with purified recombinant IN (at a final concentration of 200 nM); made in house
Outline: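 Recombinant HIV-1 IN (200 nM) preincubated with compound 30 min at 30 °C in MnCl2-containing buffer (MgCl2 plus PEG for Mg2+ format), then 1 h with 20 nM 5'-32P-labeled 21-mer duplex. 3'-processing and strand-transfer products resolved on denaturing gels, phosphorimager-quantified; IC50 from log-concentration versus % inhibition.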

[3] = read-out: Inhibition of IN catalytic activity IC50, 3’-Processing
[4] = read-out: Inhibition of IN catalytic activity IC50, Strand Transfer

Structure (SMILES) | GI50 [1] [µM] | GI50 [2] [µM] | IC50 (HIV-1 IN; [3]) [µM] | IC50 (HIV-1 IN; [4]) [µM]
O=C(Nc1ccc(Cl)cc1)C(=S)NN1C(=O)C(=Cc2ccc([N+](=O)[O-])o2)SC1=S [Compound 13, N-(4-chlorophenyl)-2-{5-[(5-nitro-2-furyl)methylene]-4-oxo-2-thioxo-1,3-thiazolidin-3-yl}amino-2-thioxoacetamide] | 13.5 ± 5.2 | > 10 | 68 ± 46 | 41 ± 27
COc1ccc(NC(=O)C(=S)NN2C(=O)C(=Cc3ccc([N+](=O)[O-])o3)SC2=S)cc1 [Compound 17, N-(4-methoxyphenyl)-2-{5-[(5-nitro-2-furyl)methylene]-4-oxo-2-thioxo-1,3-thiazolidin-3-yl}amino-2-thioxoacetamide] | 9 ± 1.1 | 9.6 | 77 ± 10 | 60
